We go through 55 compounds from ChEMBL document CHEMBL3987221, “The Australian National University Dept Of Immunology Pathogen Box Compounds Screened” (2018).

Molecules are shown by their SMILES. Calls of active or inactive are those of the source. How the calls were made is not given here.

Experiment [1] deals with T1, Ferrochelatase, mitochondrial (Homo sapiens) (UniProt P22830).
T1 sequence (whole entry): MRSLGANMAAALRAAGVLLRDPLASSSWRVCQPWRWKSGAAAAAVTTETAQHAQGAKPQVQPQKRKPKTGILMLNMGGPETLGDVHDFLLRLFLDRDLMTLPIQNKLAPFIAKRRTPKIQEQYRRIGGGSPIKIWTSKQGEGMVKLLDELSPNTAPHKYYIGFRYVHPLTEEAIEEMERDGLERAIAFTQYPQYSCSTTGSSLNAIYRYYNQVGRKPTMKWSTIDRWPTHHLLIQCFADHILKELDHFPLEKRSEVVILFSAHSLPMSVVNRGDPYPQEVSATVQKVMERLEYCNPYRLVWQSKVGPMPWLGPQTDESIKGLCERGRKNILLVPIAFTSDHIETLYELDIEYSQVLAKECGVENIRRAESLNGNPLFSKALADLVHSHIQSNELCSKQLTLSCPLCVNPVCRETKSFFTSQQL
The conditions noted are these: at 10 µM.
Description: Compound was evaluated for the inhibition of human FECH at 10uM

Experiment [2] deals with T2, Porphobilinogen deaminase (Homo sapiens) (UniProt P08397).
T2 sequence (whole entry): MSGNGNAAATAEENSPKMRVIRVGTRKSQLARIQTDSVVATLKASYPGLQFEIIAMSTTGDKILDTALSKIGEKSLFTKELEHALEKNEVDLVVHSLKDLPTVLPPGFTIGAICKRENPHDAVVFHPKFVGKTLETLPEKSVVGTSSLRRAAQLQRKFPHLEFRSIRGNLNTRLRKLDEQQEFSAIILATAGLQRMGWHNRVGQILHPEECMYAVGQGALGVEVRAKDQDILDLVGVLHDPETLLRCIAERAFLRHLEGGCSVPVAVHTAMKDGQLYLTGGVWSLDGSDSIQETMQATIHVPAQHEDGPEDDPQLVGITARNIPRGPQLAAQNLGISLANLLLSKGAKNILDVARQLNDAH
Particulars: at 100 µM.
Description: Compound was evaluated for the inhibition of human HMBS at 100uM

For `CC[C@@H]([C@H](C)O)n1ncn(-c2ccc(N3CCN(c4ccc(OC[C@@H]5CO[C@@](Cn6cncn6)(c6ccc(F)cc6F)C5)cc4)CC3)cc2)c1=O`, the inhibition result in experiment [1] and in experiment [2] was “inactive” each time.
On to `OC[C@H]1O[C@@H](n2c3ccc(Cl)cc3c3c(-c4cc5ccccc5o4)ncnc32)C(O)[C@H]1O` (stereo not given in full), for which the inhibition result in experiment [1] and in experiment [2] was “inactive” throughout.
Regarding `O=C(Nc1ccc(N2CCNCC2)cc1)c1ccn2ncc(-c3cccc(Cl)c3)c2n1`, the inhibition entry in experiment [1] and in experiment [2] was “inactive” in each case.
As for `O=C(Nc1ccc(N2CCNCC2)nc1)c1oc(-c2ccccc2)nc1C(F)(F)F`, the inhibition entry in experiment [1] and in experiment [2] was “inactive” each time.
With `O=C([C@@H](c1ccc(Cl)cc1)c1cccnc1)N1CCN(c2ccc(C(F)(F)F)cc2)CC1`, the inhibition result in experiment [1] and in experiment [2] was “inactive” each time.
For `CNC(=O)c1nn(C)c2c1C(C)(C)Cc1cnc(Nc3ccc(N4CCN(C)CC4)cc3)nc1-2`, the inhibition result in experiment [1] and in experiment [2] was “inactive” each time.
Turning to `N#Cc1nc(-c2ccccc2F)oc1NCCc1ccccc1`, the inhibition entry in experiment [1] and in experiment [2] was “inactive” throughout.
On to `CC1COC2(CCN(c3nc(=O)c4cc(C(F)(F)F)cc([N+](=O)[O-])c4s3)CC2)O1` (stereo not given), for which the inhibition entry in experiment [1] and in experiment [2] was “inactive” in each case.
`COC(=O)Nc1nc2cc(C(=O)c3ccccc3)ccc2[nH]1`: the inhibition result in experiment [1] and in experiment [2] was “inactive” each time.
As for `CC(C)(C)n1nc(-c2ccccc2)c2c(N)ncnc21`, the inhibition result in experiment [1] and in experiment [2] was “inactive” each time.
As for `COc1cccc(-n2nnnc2S(=O)(=O)Cc2ccccc2)c1`, the inhibition result in experiment [1] and in experiment [2] was “inactive” in each case.
With `CC(C)C(Oc1cccc2ccccc12)C(=O)O` (stereo not given), the inhibition result in experiment [1] and in experiment [2] was “inactive” in each case.
Take `Cc1cc(C)n(-c2ccc(NC(=O)C3CCN(Cc4cnc(C)s4)CC3)cc2)n1`: the inhibition result in experiment [1] and in experiment [2] was “inactive” throughout.
In the case of `CNc1nnc(Sc2cnn(-c3ccccc3)c(=O)c2Cl)s1`, the inhibition result in experiment [1] and in experiment [2] was “inactive” in each case.
For the compound `Nc1ncnc2c1ncn2[C@@H]1O[C@H](COS(=O)(=O)NC(=O)c2ccccc2O)[C@@H](O)[C@H]1O`, the inhibition entry in experiment [1] and in experiment [2] was “inactive” each time.
Turning to `c1ccc(-c2[nH]c3ccccc3c2C(c2ccccn2)N2CCCC2)cc1` (stereo not given), the inhibition entry in experiment [1] and in experiment [2] was “inactive” in each case.
Take `O=C(NC1CC1)c1ccc(N2CCOc3ccc(Cl)cc32)s1`: the inhibition entry in experiment [1] and in experiment [2] was “inactive” in each case.
As to `N#Cc1nc(-c2ccccc2)oc1S(=O)(=O)c1ccc(Cl)cc1`, the inhibition entry in experiment [1] and in experiment [2] was “inactive” in each case.
As for `CNc1cc(C)nc(C2CN(C(=O)c3n[nH]c4ccccc34)CCO2)c1` (stereo not given), the inhibition result in experiment [1] and in experiment [2] was “inactive” each time.
Regarding `CC(Oc1ccccc1)C(=O)Nc1nc(-c2ccccn2)cs1` (stereo not given), the inhibition result in experiment [1] and in experiment [2] was “inactive” each time.
Take `COc1cc(NC(C)CCCN)c2ncccc2c1` (stereo not given): the inhibition entry in experiment [1] and in experiment [2] was “inactive” throughout.
`Cc1ccc(Oc2ccc(NC(=O)CNc3ccccc3N3CCCC3=O)cc2)cc1`: the inhibition entry in experiment [1] and in experiment [2] was “inactive” throughout.
Consider `COc1ccc(-c2cc(NC(=O)c3ccc(F)cc3Cl)ccc2OC)cc1`, for which the inhibition entry in experiment [1] and in experiment [2] was “inactive” in each case.
As to `O=C(NCCN1CCCC1)c1cc(NCCCCN2CCC(F)(F)CC2)nc2ccc(Cl)cc12`, the inhibition entry in experiment [1] and in experiment [2] was “inactive” in each case.
In the case of `C[C@H](C(N)=O)N1CCCC[C@@H]1c1ccc(OCc2cccc(F)c2)cc1`, the inhibition result in experiment [1] and in experiment [2] was “inactive” throughout.
Take `Cc1ccccc1C(=O)N1N=C(Nc2ccccc2)SC1(C)C`: the inhibition result in experiment [1] and in experiment [2] was “inactive” throughout.
Take `CC(=O)Nc1ccc(NC(=O)c2cc(-c3cc(Cl)ccc3O)n[nH]2)cc1`: the inhibition result in experiment [1] and in experiment [2] was “inactive” in each case.
On to `CCn1ncc2c(NC3CCOCC3)c(CNC(=O)c3ccnn3C)c(C)nc21`, for which the inhibition result in experiment [1] and in experiment [2] was “inactive” each time.
As to `COc1ccc(OC)c(NCc2ccc3nc(N)nc(N)c3c2Cl)c1`, the inhibition entry in experiment [1] and in experiment [2] was “inactive” throughout.
For the compound `c1cc(C2=NCCN2)cc(-c2cc(-c3ccc(C4=NCCN4)cc3)no2)c1`, the inhibition result in experiment [1] and in experiment [2] was “inactive” in each case.
Take `Cn1ccnc1CNCCS(=O)(=O)c1cccc(Nc2ccc(-c3cccc(F)c3)cn2)c1`: the inhibition entry in experiment [1] and in experiment [2] was “inactive” each time.
Turning to `N=C(N)c1ccc(OCCCCCOc2ccc(C(=N)N)cc2)cc1`, the inhibition result in experiment [1] and in experiment [2] was “inactive” in each case.
On to `CC(C)(C)c1ccc(N[C@@H]2CCCC[C@H]2NC(=O)c2ccco2)cc1`, for which the inhibition result in experiment [1] and in experiment [2] was “inactive” in each case.
Turning to `O=C1[C@@H](Oc2ccccc2)[C@@H](c2ccc(Cl)cc2)N1CCn1cnc2c(NCc3ccccc3)ncnc21`, the inhibition entry in experiment [1] and in experiment [2] was “inactive” throughout.
`Nc1c2c(nc3sc4c(c13)CCCC4)CCCC2`: the inhibition result in experiment [1] and in experiment [2] was “inactive” throughout.
On to `CC1(C)OB(O)c2ccc(C3=NOC(c4cc(Cl)c(F)c(Cl)c4)(C(F)(F)F)C3)cc21` (stereo not given), for which the inhibition entry in experiment [1] and in experiment [2] was “inactive” each time.
`CNC(=O)c1cc(S(=O)(=O)N2CCN(c3ccccn3)CC2)cs1`: the inhibition entry in experiment [1] and in experiment [2] was “inactive” throughout.
For `Cc1ncc(-c2ccnc(Nc3ccc(S(C)(=O)=O)cc3)n2)n1C(C)C`, the inhibition entry in experiment [1] and in experiment [2] was “inactive” throughout.
For `O=C(Nc1ccc2c(c1)B(O)OC2)c1ccccc1C(F)(F)F`, the inhibition result in experiment [1] and in experiment [2] was “inactive” each time.
In the case of `Cc1nc2ccccn2c1C(=O)NCc1ccc(Cl)cc1`, the inhibition entry in experiment [1] and in experiment [2] was “inactive” in each case.
Regarding `O=C(c1ccc(NCCO)cc1)C1C[C@H]1c1ccc(Cl)cc1` (stereo not given in full), the inhibition entry in experiment [1] and in experiment [2] was “inactive” throughout.
`OCc1ccc(-c2cncc(Nc3cccc(Cl)c3)c2)cc1`: the inhibition result in experiment [1] and in experiment [2] was “inactive” in each case.
`Cc1cc(C)cc(COc2ccc3c(C)c(CCC(=O)O)c(=O)oc3c2C)c1`: the inhibition result in experiment [1] and in experiment [2] was “inactive” in each case.
On to `Nc1nccc2ccc(Oc3ccncc3)cc12`, for which the inhibition entry in experiment [1] and in experiment [2] was “inactive” each time.
On to `c1ccc(-c2nc(NC3CCCCC3)cc(C3CC3)n2)nc1`, for which the inhibition entry in experiment [1] and in experiment [2] was “inactive” in each case.
Consider `COc1ccc(C2=NN(C3CCCCCC3)C(=O)C2(C)C)cc1OCc1ccccn1`, for which the inhibition result in experiment [1] and in experiment [2] was “inactive” in each case.
With `COc1cc2ncnc(NC3CCN(Cc4ccccc4)CC3)c2cc1OC`, the inhibition result in experiment [1] and in experiment [2] was “inactive” in each case.
`CC(=O)Oc1ccccc1C(=O)Nc1ncc([N+](=O)[O-])s1`: the inhibition entry in experiment [1] and in experiment [2] was “inactive” in each case.
Regarding `CC(=O)N(CCN(C(=O)c1ccc(F)cc1)c1ccccc1)c1ccccc1`, the inhibition entry in experiment [1] and in experiment [2] was “inactive” throughout.
`Cc1cc(OCC(=O)Nc2ccc(C(C)C)cc2)n(C)c(=O)c1C#N`: the inhibition result in experiment [1] and in experiment [2] was “inactive” each time.
Turning to `Nc1ncc(-c2cn[nH]c2)cc1-c1nc2cc(Cl)cnc2[nH]1`, the inhibition result in experiment [1] and in experiment [2] was “inactive” each time.
`COc1cccc2c(C)nc(N=C(N)N)nc12`: the inhibition entry in experiment [1] and in experiment [2] was “inactive” in each case.
Consider `CNC(=O)CNc1nc(-c2ccccn2)nc2scc(-c3ccccc3)c12`, for which the inhibition entry in experiment [1] and in experiment [2] was “inactive” each time.
For `CC(C)(CN)c1nc(-c2ccc(Cl)c(O)c2)c(-c2ccnc(N)n2)[nH]1`, the inhibition result in experiment [1] and in experiment [2] was “inactive” each time.
On to `COc1ccc(Oc2ccc([C@@H](C)N(C)c3ncc4c(N)nc(N)nc4n3)cc2)cc1`, for which the inhibition result in experiment [1] and in experiment [2] was “inactive” each time.
